One experiment has as its target T1, human ADORA1 (Homo sapiens, UniProt P30542).
T1 construct: host or cells: HEK293
Description: Calcium flow test (FLIPR), ADORA1 stably transfected HEK293. It is filed as cell-based. The note with it: Table 9. From the text: The binding of the A2AR agonist to A2AR could activate a downstream pathway to increase the intracellular calcium ion concentration. The antagonist would competitively occupy the binding site where the agonist binds to A2AR, thereby interrupting the intracellular signal transduction and leading to a change in the intracellular calcium ion concentration. By detecting the strength of the intracellular calcium ion signal, the antagonistic activities of the compound on human ADORA1, ADORA2A, ADORA2B and ADORA3 adenosine receptors were determined. […]
7) The FLIPR instrument software was operated; following a set program, 10 μL of experimental buffer salt solution was added to the cell plate; and fluorescence signals were read. Then, 10 μL of the reference compound of agonist at a predetermined concentration was added to the cell plate, and the fluorescence signals were read. After reading, data was exported by means of “Max-Min” and “Read 91 to Maximum allowed” in the software, the EC80 of each cell line was calculated, and an agonist with a concentration of 6×EC80 was prepared.
9) The FLIPR instrument software was operated; following a set program, 10 μL of the test compound and 10 μL of the reference compound were added at a predetermined concentration to the cell plate; and the fluorescence signals were read. […]

The target of experiment [1] is T2, Human adenosine ADORA2B receptor membrane protein (Homo sapiens, UniProt P29275).
T2 construct: purchased PerkinElmer ES-013-M400UA
T2 sequence (P29275 1-332): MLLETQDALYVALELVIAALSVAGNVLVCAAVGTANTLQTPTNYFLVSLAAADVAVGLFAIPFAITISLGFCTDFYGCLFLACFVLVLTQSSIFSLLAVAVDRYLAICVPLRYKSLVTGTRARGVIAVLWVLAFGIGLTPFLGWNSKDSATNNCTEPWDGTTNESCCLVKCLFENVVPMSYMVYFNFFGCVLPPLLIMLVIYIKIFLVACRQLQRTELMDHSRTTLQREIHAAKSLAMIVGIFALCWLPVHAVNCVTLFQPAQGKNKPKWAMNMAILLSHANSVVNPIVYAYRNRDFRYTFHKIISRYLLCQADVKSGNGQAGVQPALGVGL
Kind of experiment: Radioisotope ligand competitive binding, ADORA2B ([3H] DPCPX). Particulars: ADORA2B (IC50, nM, n = 3), binding test. The protocol: ADORA2B: 50 mM HEPES pH 7.0, 5 mM MgCl2, 1 mM EDTA
(§1) 4) Preparation of compounds: the test compounds and the reference compounds were separately diluted with 100% DMSO.
(§2) 1 μL of a sample to be tested and 1 μL of a reference compound were added to a 96-well plate in sequence. […] 100 μL of cells and 100 μL of isotopes were added to all experimental wells. The 96-well plate was sealed; ADORA1, ADORA2B, and ADORA3 were incubated for 1 hour on a shaker (300 rpm) at room temperature (22° C.); and ADORA2A was incubated for 2 hours on a shaker (300 rpm) at room temperature (22° C.). At the same time, a GF/C filter plate was soaked with ADORA1, ADORA2A, ADORA2B, and ADORA3 by using 0.3% PEI for at least 30 minutes at room temperature, at 50 μL/well. After the incubation was completed, the incubated reaction system was collected onto the GF/C filter plate with a Harvester, washed 4 times and then dried for 0.5 hours in an oven at 50° C. The bottom of the dried GF/C filter plate was sealed with a film, 50 μL of scintillation solution was added to each well, which was then sealed with a Top-seal-A film. With Microbeta readings, the data was analyzed by GraphPad Prism 5.0.
(§3) % Inhibition=100×(1−(Sample_raw value−Low control_Average)/(High control_Average−Low control_Average))
(§4) The data was fitted with “log(inhibitor) vs response-variable slope” in GraphPad Prism 5.0 to obtain IC50.

Experiment [2] addresses T3, Human adenosine ADORA1 receptor membrane protein (Homo sapiens, UniProt P30542).
T3 construct: purchased PerkinElmer ES-010-M400UA
T3 sequence (P30542 1-326): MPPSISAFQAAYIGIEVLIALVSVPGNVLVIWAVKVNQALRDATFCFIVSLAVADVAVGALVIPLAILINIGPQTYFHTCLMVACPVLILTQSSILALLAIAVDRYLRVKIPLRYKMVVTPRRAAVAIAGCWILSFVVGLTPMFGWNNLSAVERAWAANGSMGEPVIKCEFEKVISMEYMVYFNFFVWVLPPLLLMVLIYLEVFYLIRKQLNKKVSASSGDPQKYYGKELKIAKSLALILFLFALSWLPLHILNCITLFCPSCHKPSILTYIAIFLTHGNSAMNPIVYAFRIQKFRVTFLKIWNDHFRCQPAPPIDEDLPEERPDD
Kind of experiment: Radioisotope ligand competitive binding, ADORA1 ([3H] DPCPX). Particulars: ADORA1 (IC50, nM, n = 3), binding test. As to the method:
ADORA1: 25 mM HEPES pH 7.4, 5 mM MgCl2, 1 mM CaCl2, 100 mM NaCl
as §1, §2, §3, §4

Each structure is given as a SMILES string.

Take `Cn1nnc(-c2ccc(CCNc3nc(N)n4nc(-c5ccco5)nc4n3)cc2)n1` [Compound 40, N5-(4-(2-methyl-2H-tetrazol-5-yl)phenethyl)-2-(furan-2-yl)-[1,2,4]triazolo[1,5-a][1,3,5]triazine-5,7-diamine]: the IC50 at human ADORA1 worked out at 228 ± 105 nM; in experiment [1] (Table 10 (IC50)) it was 268 ± 87.5 nM; in experiment [1] (Table 11), 242 nM; in experiment [2] (Table 10 (IC50)), 552 ± 283 nM; in experiment [2] (Table 11), 441 nM.
Take `Nc1nc(NCCc2ccc(NC3COC3)cc2)nc2nc(-c3ccco3)nn12` [Compound 22, 2-(furan-2-yl)-N5-(4-(oxetan-3-ylamino)phenethyl)-[1,2,4]triazolo[1,5-a][1,3,5]triazine-5,7-diamine]: the concentration for half-maximal inhibition (IC50) at human ADORA1 turned out to be 218 ± 148 nM; in experiment [1] (Table 10 (IC50)), 344 ± 181 nM; in experiment [1] (Table 11), 310 nM; in experiment [2] (Table 10 (IC50)), 821 ± 54.2 nM; in experiment [2] (Table 11) it was 564 nM.

In general, IC50 refers to the midpoint of a concentration-inhibition curve.
